Source: patent publication US20250296934A1, “AZEPINOINDOLES AND METHODS OF PREPARATION THEREOF” (priority 2022, published 2025)
Read-outs that look alike come from different tables or passages of the source.

Tests used:
[1] = target: 5-HT1B (Homo sapiens, UniProt P28222); experiment: 5-HT receptor activity (Table 3), 5-HT1B; assay type: cell-based
[2] = target: 5-HT1E (Homo sapiens, UniProt P28566); experiment: 5-HT receptor activity (Table 3), 5-HT1E; assay type: cell-based
[3] = target: T1, 5-HT1F (Homo sapiens, UniProt P30939); experiment: 5-HT receptor activity (Table 3), 5-HT1F; assay type: cell-based
T1 sequence (P30939 1-366): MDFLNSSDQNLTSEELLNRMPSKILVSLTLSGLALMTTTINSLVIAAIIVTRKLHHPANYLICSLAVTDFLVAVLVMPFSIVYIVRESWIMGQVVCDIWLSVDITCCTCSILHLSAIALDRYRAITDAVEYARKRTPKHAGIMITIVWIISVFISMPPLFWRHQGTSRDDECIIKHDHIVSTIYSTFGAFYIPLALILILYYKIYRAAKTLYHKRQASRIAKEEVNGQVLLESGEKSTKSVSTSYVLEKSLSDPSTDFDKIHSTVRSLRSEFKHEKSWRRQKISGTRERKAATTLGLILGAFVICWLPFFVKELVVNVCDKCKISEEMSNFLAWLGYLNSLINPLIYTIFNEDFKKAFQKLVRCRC

[4] = target: 5-HT2B (Homo sapiens, UniProt P41595); experiment: 5-HT receptor activity (Table 3), 5-HT2B; assay type: cell-based
[5] = target: 5-HT6 (Homo sapiens, UniProt P50406); experiment: 5-HT receptor activity (Table 3), 5-HT6; assay type: cell-based
[6] = target: 5-HT7 (Homo sapiens, UniProt P34969); experiment: 5-HT receptor activity (Table 3), 5-HT7; assay type: cell-based
[7] = In vitro hepatocyte clearance, dog; assay type: in vitro ADME
Description: (§1) Additional experimentation was performed on compounds 1, W5, and A93. Table 6a, 6b and 6c summarize, among other things, the anticipated hepatic clearance of compounds 1, W5 and A93 respectively, in various species, as specified in Table 6a, 6b and 6c and as determined by calculating the in vitro hepatocyte clearance over time and scaling such rate with such species' hepatocyte count and the anticipated liver blood flow rate in such species.

[8] = In vitro hepatocyte clearance, rat; assay type: in vitro ADME
Description: as §1

[9] = tested on: hepatocyte; experiment: In vitro hepatocyte clearance, rat; assay type: in vitro ADME; conditions: Rat
Description: as §1

[10] = Plasma PK in rat; assay type: in vivo
From the text: Tables 7a and 7b summarize, among other things, the observed plasma PK properties in animals, for Compound 1: […]

[11] = tested on: mice; experiment: Head Twitch Response (HTR) in mice; assay type: in vivo; conditions: Mus musculus, 1 h, measured over a 60 minute interval
Description: Head Twitch Response (HTR) was assessed using a head-mounted neodymium magnet and a magnetometer detection coil, as described in Halberstadt et al., Psychopharmacology (Berl.), 2013, 227 (4): 727-739. Table 8 below summarizes the ED50 in head twitch (as measured over a 60 minute interval) in mice as a result of Compound 1 as compared to psilocybin.

[12] = tested on: TA98
[13] = tested on: TA100
[14] = target: 5-HT2A (Homo sapiens, UniProt P28223); experiment: 5-HT2A Gq dissociation BRET functional assay; assay type: cell-based; set-up: expressed in transfected cells; host or cells: HEK293T
[15] = target: T2, 5-HT2C (Homo sapiens, UniProt P28335); experiment: cell-based; assay type: cell-based; set-up: expressed in transfected cells; host or cells: HEK293T
T2 sequence (P28335 33-458): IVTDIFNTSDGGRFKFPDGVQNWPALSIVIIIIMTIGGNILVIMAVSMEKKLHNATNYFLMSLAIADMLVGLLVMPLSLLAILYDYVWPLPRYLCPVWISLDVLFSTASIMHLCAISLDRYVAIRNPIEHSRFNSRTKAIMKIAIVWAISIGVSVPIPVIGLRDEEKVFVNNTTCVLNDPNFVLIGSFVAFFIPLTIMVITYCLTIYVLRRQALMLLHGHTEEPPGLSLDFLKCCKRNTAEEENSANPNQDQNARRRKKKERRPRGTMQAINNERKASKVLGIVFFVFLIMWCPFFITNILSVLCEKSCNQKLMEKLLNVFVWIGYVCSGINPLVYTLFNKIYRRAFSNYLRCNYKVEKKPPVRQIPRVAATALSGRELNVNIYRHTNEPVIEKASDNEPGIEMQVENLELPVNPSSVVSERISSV

[16] = normalized to % 5-HT stimulation

Chain of 5-HT2B (P41595 whole entry, species assumed): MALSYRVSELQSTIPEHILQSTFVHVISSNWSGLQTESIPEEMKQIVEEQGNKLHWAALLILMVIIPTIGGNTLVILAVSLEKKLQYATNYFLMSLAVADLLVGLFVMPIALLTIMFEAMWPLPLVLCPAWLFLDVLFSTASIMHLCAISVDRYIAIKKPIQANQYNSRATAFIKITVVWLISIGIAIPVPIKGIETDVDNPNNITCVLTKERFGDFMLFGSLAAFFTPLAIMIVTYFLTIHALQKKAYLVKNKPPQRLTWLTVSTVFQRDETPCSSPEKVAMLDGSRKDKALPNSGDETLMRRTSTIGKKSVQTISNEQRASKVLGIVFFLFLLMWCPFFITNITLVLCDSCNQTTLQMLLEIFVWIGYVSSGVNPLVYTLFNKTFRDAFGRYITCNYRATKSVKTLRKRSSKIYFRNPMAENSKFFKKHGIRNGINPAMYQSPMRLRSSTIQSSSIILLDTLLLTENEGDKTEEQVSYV
Chain of 5-HT1B (P28222 whole entry, species assumed): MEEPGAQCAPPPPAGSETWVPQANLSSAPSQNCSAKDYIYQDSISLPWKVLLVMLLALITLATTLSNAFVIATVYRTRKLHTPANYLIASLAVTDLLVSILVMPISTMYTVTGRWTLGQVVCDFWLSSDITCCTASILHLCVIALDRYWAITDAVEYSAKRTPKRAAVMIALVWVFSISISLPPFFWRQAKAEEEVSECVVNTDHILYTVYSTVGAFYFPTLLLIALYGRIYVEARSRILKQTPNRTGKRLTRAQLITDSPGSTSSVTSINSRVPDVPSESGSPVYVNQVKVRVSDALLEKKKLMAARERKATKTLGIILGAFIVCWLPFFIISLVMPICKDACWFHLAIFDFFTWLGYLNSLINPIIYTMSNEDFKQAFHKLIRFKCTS
Chain of 5-HT6 (P50406 whole entry, species assumed): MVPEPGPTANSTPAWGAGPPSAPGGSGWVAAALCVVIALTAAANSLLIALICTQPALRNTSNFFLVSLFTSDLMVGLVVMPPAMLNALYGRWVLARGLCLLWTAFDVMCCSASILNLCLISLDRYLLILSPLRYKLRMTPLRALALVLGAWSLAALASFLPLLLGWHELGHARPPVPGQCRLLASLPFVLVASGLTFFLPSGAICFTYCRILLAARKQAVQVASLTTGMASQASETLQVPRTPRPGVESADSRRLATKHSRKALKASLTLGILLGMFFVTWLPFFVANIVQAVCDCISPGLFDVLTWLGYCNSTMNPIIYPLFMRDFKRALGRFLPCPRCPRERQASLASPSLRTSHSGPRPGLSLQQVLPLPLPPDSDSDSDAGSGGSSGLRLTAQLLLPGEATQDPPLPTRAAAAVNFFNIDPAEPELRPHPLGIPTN
Chain of 5-HT1E (P28566 whole entry, species assumed): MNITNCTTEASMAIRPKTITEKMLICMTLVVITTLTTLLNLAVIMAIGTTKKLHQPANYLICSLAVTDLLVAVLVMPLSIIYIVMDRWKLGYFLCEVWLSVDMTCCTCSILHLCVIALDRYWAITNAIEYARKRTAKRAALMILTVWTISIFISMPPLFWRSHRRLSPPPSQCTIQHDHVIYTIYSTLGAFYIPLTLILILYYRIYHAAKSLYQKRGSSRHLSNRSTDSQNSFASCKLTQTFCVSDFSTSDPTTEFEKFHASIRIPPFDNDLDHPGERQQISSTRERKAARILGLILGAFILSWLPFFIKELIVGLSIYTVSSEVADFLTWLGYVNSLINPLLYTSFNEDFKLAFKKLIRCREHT
Chain of 5-HT2A (P28223 whole entry): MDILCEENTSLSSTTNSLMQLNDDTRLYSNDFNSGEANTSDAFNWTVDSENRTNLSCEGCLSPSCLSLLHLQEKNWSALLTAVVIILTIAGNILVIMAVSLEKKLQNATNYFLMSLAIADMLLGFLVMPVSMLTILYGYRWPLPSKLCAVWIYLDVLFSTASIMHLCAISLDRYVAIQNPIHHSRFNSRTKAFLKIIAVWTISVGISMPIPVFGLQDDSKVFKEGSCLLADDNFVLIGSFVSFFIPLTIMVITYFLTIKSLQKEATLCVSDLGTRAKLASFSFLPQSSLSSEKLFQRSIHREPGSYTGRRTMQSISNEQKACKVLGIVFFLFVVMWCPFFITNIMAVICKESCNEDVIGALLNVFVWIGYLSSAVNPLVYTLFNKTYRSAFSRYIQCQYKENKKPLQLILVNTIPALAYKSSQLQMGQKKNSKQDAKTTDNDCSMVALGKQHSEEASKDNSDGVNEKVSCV
Chain of 5-HT7 (P34969 whole entry, species assumed): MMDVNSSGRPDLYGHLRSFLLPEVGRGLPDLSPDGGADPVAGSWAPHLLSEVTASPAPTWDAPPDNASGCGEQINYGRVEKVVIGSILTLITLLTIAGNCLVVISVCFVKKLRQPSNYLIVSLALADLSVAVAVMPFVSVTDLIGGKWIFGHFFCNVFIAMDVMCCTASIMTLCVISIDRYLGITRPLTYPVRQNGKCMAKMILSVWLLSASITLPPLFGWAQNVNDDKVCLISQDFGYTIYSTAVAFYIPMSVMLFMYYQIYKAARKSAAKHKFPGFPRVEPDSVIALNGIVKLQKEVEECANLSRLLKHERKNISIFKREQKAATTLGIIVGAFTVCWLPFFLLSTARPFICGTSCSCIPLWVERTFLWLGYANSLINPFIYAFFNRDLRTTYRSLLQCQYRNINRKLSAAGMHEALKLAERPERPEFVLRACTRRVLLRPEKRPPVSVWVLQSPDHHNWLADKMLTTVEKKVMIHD

Structure (SMILES): Cc1ccc(O)c2c3c([nH]c12)CCNCC3 [Cpd #1 (Pharm-136), 7-Methyl-1,2,3,4,5,6-hexahydroazepino[4,5-b]indol-10-ol]
- EC50 [1]: 327 nM
- Eff [1]: 74%
- EC50 [2]: 966 nM
- Eff [2]: 94%
- EC50 [3]: 460 nM
- Eff [3]: 56%
- EC50 [4]: 4.2 nM
- Eff ([4]; 5-HT2B, Table 3): 50%
- EC50 [5]: 53.2 nM
- Eff [5]: 55%
- EC50 [6]: Not active
- hepatocyte CLint ([7]; Dog hepatocytes): < 2.71 µL/min/1e6 cells
- half-life ([7]; Dog hepatocytes, read-out: In vitro T1/2): > 8.53 h
- CLint scaled ([7]; dog, hepatocytes, read-out: Scale-up Clint): < 18.6 mL/min/kg
- hepatocyte CLint ([8]; Rat hepatocytes): 5.43 µL/min/1e6 cells
- half-life ([8]; Rat hepatocytes, read-out: In vitro T1/2): 4.26 h
- CLint scaled ([8]; rat, hepatocytes, read-out: Scale-up Clint): 25.4 mL/min/kg
- Hepatic Extraction Ratio (E) [9]: 0.32
- Predicted hepatic CL [9]: 17.41 mL/min/kg
- AUC(0-t) ([10]; IP, 10 mg/kg): 193 ng·h/mL
- Cl_F ([10]; IP, 10 mg/kg): 816.02 mL/min/kg
- Vz_F ([10]; IP, 10 mg/kg): 225.48 L/kg
- half-life ([10]; IP, 10 mg/kg): 3.3 h
- AUC(0-t) ([10]; IV, 2.5 mg/kg): 37.5 ng·h/mL
- half-life ([10]; IV, 2.5 mg/kg): 3.93 h
- clearance ([10]; IV, 2.5 mg/kg, read-out: Cltot (converted)): 1070 mL/min/kg
- Vd ([10]; IV, 2.5 mg/kg, read-out: Vss): 0.204 L/kg
- ED50 [11]: 3.6 mg/kg
- Count (n. of wells) ([12]; TA98 + S9, 1.0E−04M): 0 n. of wells
- Significance ([12]; TA98 + S9, 1.0E−04M): Negative
- Count (n. of wells) ([12]; TA98 + S9, 1.0E−05M): 3 n. of wells
- Significance ([12]; TA98 + S9, 1.0E−05M): Negative
- Count (n. of wells) ([12]; TA98 + S9, 5.0E−05M): 0 n. of wells
- Significance ([12]; TA98 + S9, 5.0E−05M): Negative
- Count (n. of wells) ([12]; TA98 + S9, 5.0E−06M): 9 n. of wells
- Significance ([12]; TA98 + S9, 5.0E−06M): Weak positive
- Count (n. of wells) ([12]; TA98 − S9, 1.0E−04M): 0 n. of wells
- Significance ([12]; TA98 − S9, 1.0E−04M): Negative
- Count (n. of wells) ([12]; TA98 − S9, 1.0E−05M): 0 n. of wells
- Significance ([12]; TA98 − S9, 1.0E−05M): Negative
- Count (n. of wells) ([12]; TA98 − S9, 5.0E−05M): 0 n. of wells
- Significance ([12]; TA98 − S9, 5.0E−05M): Negative
- Count (n. of wells) ([12]; TA98 − S9, 5.0E−06M): 1 n. of wells
- Significance ([12]; TA98 − S9, 5.0E−06M): Negative
- Count (n. of wells) ([13]; TA100 + S9, 1.0E−04M): 0 n. of wells
- Significance ([13]; TA100 + S9, 1.0E−04M): Negative
- Count (n. of wells) ([13]; TA100 + S9, 1.0E−05M): 8 n. of wells
- Significance ([13]; TA100 + S9, 1.0E−05M): Negative
- Count (n. of wells) ([13]; TA100 + S9, 5.0E−05M): 1 n. of wells
- Significance ([13]; TA100 + S9, 5.0E−05M): Negative
- Count (n. of wells) ([13]; TA100 + S9, 5.0E−06M): 13 n. of wells
- Significance ([13]; TA100 + S9, 5.0E−06M): Negative
- Count (n. of wells) ([13]; TA100 − S9, 1.0E−04M): 0 n. of wells
- Significance ([13]; TA100 − S9, 1.0E−04M): Negative
- Count (n. of wells) ([13]; TA100 − S9, 1.0E−05M): 1 n. of wells
- Significance ([13]; TA100 − S9, 1.0E−05M): Negative
- Count (n. of wells) ([13]; TA100 − S9, 5.0E−05M): 0 n. of wells
- Significance ([13]; TA100 − S9, 5.0E−05M): Negative
- Count (n. of wells) ([13]; TA100 − S9, 5.0E−06M): 2 n. of wells
- Significance ([13]; TA100 − S9, 5.0E−06M): Negative
- EC50 [14]: 0.6 nM
- 5-HT2A BRET Eff [14, 16]: 102%
- EC50 ([15]; Gq dissociation BRET, HEK293T): 0.5 nM
- 5-HT2C BRET Eff [15, 16]: 101%
